In the experiment the target is T1, intracellular domain of human Tie2 (GST fusion protein) (Homo sapiens, UniProt Q02763).
T1 construct: intracellular domain of human Tie2 (amino acids 776-1124); made in house; host or cells: Baculovirus-infected insect cells (Hi5)
The experiment can be described thus: Tie2 kinase assay (Tie2-TR-FRET). In kind it is biochemical. To be noted: ATP concentration 1 mM, in some cases means of several independent determinations. Here is the method: The Tie2-inhibitory activity of the substances according to the invention was determined with the aid of one of the Tie2-TR-FRET assays described in the sections below at an ATP concentration of 1 mM (TR-FRET=Time-Resolved Fluorescence Resonance Energy Transfer):
The enzyme used was a recombinant fusion protein of glutathione S-transferase (GST) and the intracellular domain of human Tie2 (amino acids 776-1124) which was expressed in Baculovirus-infected insect cells (Hi5) and was purified by affinity chromatography on glutathione-Sepharose. Alternatively, it is also possible to use commercially available GST-His6-Tie2 fusion protein (ProQinase GmbH, Freiburg im Breisgau, Germany). The substrate used for the kinase reaction was the biotinylated peptide biotin-Ahx-[…] (C-terminus in amide form) which is commercially available (for example from Biosyntan, Berlin, Germany).
For the assay, 50 nl of a 100-fold concentrated solution of the respective test substance in DMSO were pipetted into a black low-volume 384-well microtitre plate (Greiner Bio-One, Frickenhausen, Germany) 2 μl of a solution of the Tie2 fusion protein in assay buffer [50 mM HEPES/HCl pH 7, 10 mM MgCl2, 2.5 mM MnCl2, 1 mM dithiothreitol, 0.01% (v/v) Nonidet P-40, 0.1% (w/v) bovine serum albumin (BSA), 1× Complete EDTA-free protease inhibitor mixture (Roche)] were added, and the mixture was incubated for 15 min to allow pre-binding of the substance to the enzyme prior to the kinase reaction. The kinase reaction was then started by adding 3 μl of a solution of adenosine triphosphate (ATP, 1.67 mM→final concentration in 5 μl assay volume=1 mM) and substrate (1.67 μM→final concentration in 5 μl assay volume=1 μM) in assay buffer, and the resulting mixture was incubated for a reaction time of 60 min at 22° C. The concentration of the Tie2 fusion protein was adapted to the respective activity of the enzyme and adjusted such that the assay was carried out in the linear range. Typical concentrations were in the range of 30 ng/ml.
The reaction was stopped by addition of 5 μl of a solution of TR-FRET detection reagents [200 nM streptavidin-XL665 and 2 nM PT66-Eu chelate, a europium chelate-labelled anti-phosphotyrosine antibody (Perkin-Elmer); alternatively, it is also possible to use PT66-Tb cryptate (Cisbio Bioassays, Codolet, France)] in aqueous EDTA solution[90 mM EDTA, 0.28% (w/v) bovine serum albumin (BSA) in 50 mM HEPES pH 7.5]. The resulting mixture was incubated at 22° C. for 1 h to allow formation of the complex of the biotinylated phosphorylated substrate and the detection reagents. The amount of phosphorylated substrate was then determined by measuring the resonance energy transfer from PT66-Eu chelate to streptavidin-XL665. To this end, the fluorescence emissions at 620 nm and 665 nm after excitation at 350 nm were measured in a TR-FRET measuring instrument (for example Viewlux, Perkin-Elmer). The ratio of the emissions at 665 nm and at 620 nm was taken as a measure of the amount of phosphorylated substrate.
Usually, the test substance in question was tested on the same microtitre plate at […] different concentrations in the range from 20 μM to 0.073 nM (for example at 20 μM, 5.7 μM, 1.6 μM, 0.47 μM, 0.13 μM, 38 nM, 11 nM, 3.1 nM, 0.89 nM, 0.25 nM and 0.073 nM) in duplicate for each concentration. The dilution series were prepared prior to the assay at the stage of the 100-fold concentrated solution by serial dilution (the exact concentrations may vary depending on the pipettors used in each case). IC50 values were calculated using a 4-parameter fit, with the aid of inhouse software.
Table 1 below lists the IC50 values from this assay for individual working examples (in some cases as means of several independent individual determinations): […]

pIC50: −log10 of the molar value.

Data on 22 compounds can be found in US20150005288A1, “SUBSTITUTED PHENYLIMIDAZOPYRAZOLES AND USE THEREOF” (Bayer Intellectual Property GmbH, priority 2012, published 2015).

T1 sequence (Q02763 776-1124): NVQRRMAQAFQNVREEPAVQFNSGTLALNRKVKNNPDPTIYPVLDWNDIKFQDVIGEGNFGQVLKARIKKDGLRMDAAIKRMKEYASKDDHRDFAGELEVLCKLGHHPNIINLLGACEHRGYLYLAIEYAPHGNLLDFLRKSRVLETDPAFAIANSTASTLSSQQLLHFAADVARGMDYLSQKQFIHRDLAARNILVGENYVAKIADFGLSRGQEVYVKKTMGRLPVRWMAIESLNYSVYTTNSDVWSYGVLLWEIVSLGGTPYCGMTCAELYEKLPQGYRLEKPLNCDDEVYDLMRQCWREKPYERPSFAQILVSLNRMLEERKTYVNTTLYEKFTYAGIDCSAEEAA

On to `Cc1cc(C)c(-n2ccn3nc(-c4cccnc4)cc23)cc1NC(=O)c1cccc(OCC(F)(F)F)c1` [Example 130, N-{2,4-Dimethyl-5-[6-(pyridin-3-yl)-1H-imidazo[1,2-b]pyrazol-1-yl]phenyl}-3-(2,2,2-trifluoroethoxy)benzamide], for which the pIC50 is 7.62.

`Cc1cc(C)c(-n2ccn3nc(-c4cccnc4)cc23)cc1NC(=O)c1cccc(C(C)(C)C(F)(F)F)c1` [Example 139, N-{2,4-Dimethyl-5-[6-(pyridin-3-yl)-1H-imidazo[1,2-b]pyrazol-1-yl]phenyl}-3-(1,1,1-trifluoro-2-methylpropan-2-yl)benzamide]: the pIC50 is 9.30.

`N#Cc1cc(C(=O)Nc2cccc(-n3ccn4nc(-c5cccnc5)cc34)c2)cc(S(F)(F)(F)(F)F)c1` [Example 87, 3-Cyano-5-(pentafluoro-λ^6-sulphanyl)-N-{3-[6-(pyridin-3-yl)-1H-imidazo[1,2-b]pyrazol-1-yl]-phenyl}benzamide] had a pIC50 of 6.01.

`Cc1ccc(NC(=O)c2cc(N3CCNCC3)cc(S(F)(F)(F)(F)F)c2)cc1-n1cc(C)n2nc(-c3cn[nH]c3)cc12` [Example 10, N-{4-Methyl-3-[3-methyl-6-(1H-pyrazol-4-yl)-1H-imidazo[1,2-b]pyrazol-1-yl]phenyl}-3-(pentafluoro-λ^6-sulphanyl)-5-(piperazin-1-yl)benzamide]: the pIC50 was 9.52.

Compound `COc1cc(C(=O)Nc2ccc(C)c(-n3cc(C)n4nc(-c5cn[nH]c5)cc34)c2)cc(S(F)(F)(F)(F)F)c1` [Example 13, 3-Methoxy-N-{4-methyl-3-[3-methyl-6-(1H-pyrazol-4-yl)-1H-imidazo[1,2-b]pyrazol-1-yl]-phenyl}-5-(pentafluoro-λ^6-sulphanyl)benzamide] had a pIC50 of 8.89.

Turning to `Cc1c(Cl)cc(NC(=O)c2cccc(S(F)(F)(F)(F)F)c2)cc1-n1ccn2nc(-c3cccnc3)cc12` [Example 106, N-{3-Chloro-4-methyl-5-[6-(pyridin-3-yl)-1H-imidazo[1,2-b]pyrazol-1-yl]phenyl}-3-(pentafluoro-λ^6-sulphanyl)benzamide], the negative logarithm of the IC50 (pIC50) is 6.96.

In turn, `COc1ccc(S(F)(F)(F)(F)F)cc1C(=O)Nc1ccc(C)c(-n2ccn3nc(-c4cccnc4)cc23)c1` [Example 90, 2-Methoxy-N-{4-methyl-3-[6-(pyridin-3-yl)-1H-imidazo[1,2-b]pyrazol-1-yl]phenyl}-5-(pentafluoro-λ^6-sulphanyl)benzamide] had a pIC50 of 7.04.

Consider `Cc1ccc(NC(=O)c2ccnc(N3CCOCC3)c2)cc1-n1ccn2nc(-c3cccnc3)cc12` [Example 69, N-{4-Methyl-3-[6-(pyridin-3-yl)-1H-imidazo[1,2-b]pyrazol-1-yl]phenyl}-2-(morpholin-4-yl)-pyridine-4-carboxamide], for which the pIC50 is 6.24.

On to `Cc1ccc(NC(=O)c2cccc(C(C)(C)C)c2)cc1-n1ccn2nc(-c3cccnc3)cc12` [Example 123, 3-tert-Butyl-N-{4-methyl-3-[6-(pyridin-3-yl)-1H-imidazo[1,2-b]pyrazol-1-yl]phenyl}benzamide], for which the pIC50 is 7.25.

Consider `COc1ccc(NC(=O)c2cc(Br)cc(S(F)(F)(F)(F)F)c2)cc1-n1ccn2nc(-c3cccnc3)cc12` [Example 98, 3-Bromo-N-{4-methoxy-3-[6-(pyridin-3-yl)-1H-imidazo[1,2-b]pyrazol-1-yl]phenyl}-5-(pentafluoro-λ^6-sulphanyl)benzamide], for which the negative logarithm of the IC50 (pIC50) is 6.23.

In the case of `Cc1ccc(NC(=O)c2cc(OC3CCNC3)cc(S(F)(F)(F)(F)F)c2)cc1-n1ccn2nc(-c3cccnc3)cc12` (stereo not shown) [Example 25, N-{4-Methyl-3-[6-(pyridin-3-yl)-1H-imidazo[1,2-b]pyrazol-1-yl]phenyl}-3-(pentafluoro-λ^6-sulphanyl)-5-(pyrrolidin-3-yloxy)benzamide], the pIC50 is 8.72.

`Cc1ccc(NC(=O)c2cccc(S(F)(F)(F)(F)F)c2)cc1-n1ccn2nc(-c3cccnc3)cc12` [Example 15, N-{4-Methyl-3-[6-(pyridin-3-yl)-1H-imidazo[1,2-b]pyrazol-1-yl]phenyl}-3-(pentafluoro-λ^6-sulphanyl)benzamide]: the pIC50 is 7.62.

`Cc1ccc(NC(=O)c2cc(-n3ccnc3C)cc(C(C)(C)C)c2)cc1-n1ccn2nc(-c3cccnc3)cc12` [Example 47, 3-tert-Butyl-5-(2-methyl-1H-imidazol-1-yl)-N-{4-methyl-3-[6-(pyridin-3-yl)-1H-imidazo[1,2-b]-pyrazol-1-yl]phenyl}benzamide]: the pIC50 was 9.52.

`Cc1ccc(NC(=O)c2ccc(Cl)c(N3CCCCC3)c2)cc1-n1ccn2nc(-c3cccnc3)cc12` [Example 58, 4-Chloro-N-{4-methyl-3-[6-(pyridin-3-yl)-1H-imidazo[1,2-b]pyrazol-1-yl]phenyl}-3-(piperidin-1-yl)benzamide] showed a pIC50 of 6.48.

`N#Cc1cc(C(=O)Nc2cccc(-n3ccn4nc(-c5cccnc5)cc34)c2O)cc(S(F)(F)(F)(F)F)c1` [Example 83, 3-Cyano-N-{2-hydroxy-3-[6-(pyridin-3-yl)-1H-imidazo[1,2-b]pyrazol-1-yl]phenyl}-5-(pentafluoro-λ^6-sulphanyl)benzamide] showed a pIC50 of 6.96.

The compound `Cc1cc(C)c(-n2ccn3nc(-c4cccnc4)cc23)cc1NC(=O)c1cccc(OC(F)(F)F)c1` [Example 127, N-{2,4-Dimethyl-5-[6-(pyridin-3-yl)-1H-imidazo[1,2-b]pyrazol-1-yl]phenyl}-3-(trifluoromethoxy)benzamide] had a pIC50 of 8.85.

`Cc1ccc(NC(=O)c2cc(C#N)cc(S(F)(F)(F)(F)F)c2)c(C)c1-n1ccn2nc(-c3cccnc3)cc12` [Example 121, 3-Cyano-N-{2,4-dimethyl-3-[6-(pyridin-3-yl)-1H-imidazo[1,2-b]pyrazol-1-yl]phenyl}-5-(pentafluoro-λ^6-sulphanyl)benzamide] showed a pIC50 of 7.74.

In turn, `Cc1ccc(NC(=O)c2cccc(OCC(C)C)c2)cc1-n1ccn2nc(-c3cccnc3)cc12` [Example 62, 3-(2-Methylpropoxy)-N-{4-methyl-3-[6-(pyridin-3-yl)-1H-imidazo[1,2-b]pyrazol-1-yl]phenyl}-benzamide] showed a pIC50 of 6.30.

Regarding `Cc1ccc(NC(=O)c2cc(C#N)cc(OC(F)(F)F)c2)cc1-n1ccn2nc(-c3cccnc3)cc12` [Example 38, 3-Cyano-N-{4-methyl-3-[6-(pyridin-3-yl)-1H-imidazo[1,2-b]pyrazol-1-yl]phenyl}-5-(trifluoromethoxy)benzamide], the pIC50 was 7.82.

In turn, `Cc1cc(C)c(-n2ccn3nc(-c4cccnc4)cc23)cc1NC(=O)c1cccc(OC(C)C)c1` [Example 132, N-{2,4-Dimethyl-5-[6-(pyridin-3-yl)-1H-imidazo[1,2-b]pyrazol-1-yl]phenyl}-3-isopropoxybenzamide] showed a pIC50 of 8.34.

As to `Cc1c(NC(=O)c2cc(C#N)cc(S(F)(F)(F)(F)F)c2)cccc1-n1ccn2nc(-c3cccnc3)cc12` [Example 80, 3-Cyano-N-{2-methyl-3-[6-(pyridin-3-yl)-1H-imidazo[1,2-b]pyrazol-1-yl]phenyl}-5-(pentafluoro-λ^6-sulphanyl)benzamide], the pIC50 was 6.14.

For the compound `O=C(Nc1ccc(F)c(-n2ccn3nc(-c4cccnc4)cc23)c1)c1cccc(S(F)(F)(F)(F)F)c1` [Example 70, N-{4-Fluoro-5-[6-(pyridin-3-yl)-1H-imidazo[1,2-b]pyrazol-1-yl]phenyl}-3-(pentafluoro-λ^6-sulphanyl)benzamide], the pIC50 is 6.98.

For orientation: pIC50 means −log10 of the IC50, conventionally taken in molar units. Low values mean a large IC50, high ones a small IC50.
